Assay [1] deals with T1, AMPKα2 (recombinant AMPKα2β1γ1) (Homo sapiens, UniProt P54619+P54646+Q9Y478).
T1 construct: gene PRKAA2; recombinant AMPKα2β1γ1 heterotrimer (#P48-10H, SignalChem); with AMPKβ1, AMPKγ1
Kind of assay: radiometric in vitro kinase assay with SAMS peptide and […]-ATP. In kind it is biochemical.

Assay [2] addresses T2, AMPKα1 (recombinant AMPKα1β1γ1) (Homo sapiens, UniProt Q13131).
T2 construct: gene PRKAA1; recombinant AMPKα1β1γ1 heterotrimer (#P47-10H, SignalChem); with AMPKβ1, AMPKγ1
Kind of assay: radiometric in vitro kinase assay with SAMS peptide and […]-ATP; Lineweaver-Burk; IC50 […]. Type of assay: biochemical.

T1 sequence (P54646 whole entry): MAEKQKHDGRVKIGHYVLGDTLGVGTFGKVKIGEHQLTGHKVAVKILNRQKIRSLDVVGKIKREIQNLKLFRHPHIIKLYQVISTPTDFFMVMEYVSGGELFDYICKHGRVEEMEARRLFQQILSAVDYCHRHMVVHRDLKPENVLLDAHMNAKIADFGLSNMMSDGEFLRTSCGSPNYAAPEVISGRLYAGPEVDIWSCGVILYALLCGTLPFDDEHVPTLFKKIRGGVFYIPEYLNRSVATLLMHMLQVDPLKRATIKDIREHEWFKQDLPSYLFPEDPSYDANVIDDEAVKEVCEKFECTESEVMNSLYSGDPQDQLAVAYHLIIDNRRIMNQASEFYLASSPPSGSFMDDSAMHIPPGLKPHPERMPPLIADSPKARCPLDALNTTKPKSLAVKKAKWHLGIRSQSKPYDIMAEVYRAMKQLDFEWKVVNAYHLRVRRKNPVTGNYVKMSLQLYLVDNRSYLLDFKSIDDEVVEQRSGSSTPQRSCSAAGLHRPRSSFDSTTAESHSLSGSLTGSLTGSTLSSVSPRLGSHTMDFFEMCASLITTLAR
T1 sequence (Q9Y478 2-270 partner): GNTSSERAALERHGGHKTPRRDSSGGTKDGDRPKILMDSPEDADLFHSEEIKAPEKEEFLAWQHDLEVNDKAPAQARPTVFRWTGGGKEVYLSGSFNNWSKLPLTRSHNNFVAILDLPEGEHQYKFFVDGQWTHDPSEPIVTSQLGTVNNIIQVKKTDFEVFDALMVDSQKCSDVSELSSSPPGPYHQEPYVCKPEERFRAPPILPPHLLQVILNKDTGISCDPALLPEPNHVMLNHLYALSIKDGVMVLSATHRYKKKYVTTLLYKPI
T1 sequence (P54619 whole entry partner): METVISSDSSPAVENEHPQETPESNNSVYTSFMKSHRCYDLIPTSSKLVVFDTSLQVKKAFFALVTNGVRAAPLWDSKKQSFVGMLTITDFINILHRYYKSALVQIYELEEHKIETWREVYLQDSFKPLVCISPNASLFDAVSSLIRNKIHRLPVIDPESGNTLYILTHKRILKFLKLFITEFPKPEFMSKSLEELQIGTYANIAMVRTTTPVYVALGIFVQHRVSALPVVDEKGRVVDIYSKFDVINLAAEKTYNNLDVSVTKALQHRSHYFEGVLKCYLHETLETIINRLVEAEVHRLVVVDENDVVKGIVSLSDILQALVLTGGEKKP
T2 sequence (Q13131 whole entry): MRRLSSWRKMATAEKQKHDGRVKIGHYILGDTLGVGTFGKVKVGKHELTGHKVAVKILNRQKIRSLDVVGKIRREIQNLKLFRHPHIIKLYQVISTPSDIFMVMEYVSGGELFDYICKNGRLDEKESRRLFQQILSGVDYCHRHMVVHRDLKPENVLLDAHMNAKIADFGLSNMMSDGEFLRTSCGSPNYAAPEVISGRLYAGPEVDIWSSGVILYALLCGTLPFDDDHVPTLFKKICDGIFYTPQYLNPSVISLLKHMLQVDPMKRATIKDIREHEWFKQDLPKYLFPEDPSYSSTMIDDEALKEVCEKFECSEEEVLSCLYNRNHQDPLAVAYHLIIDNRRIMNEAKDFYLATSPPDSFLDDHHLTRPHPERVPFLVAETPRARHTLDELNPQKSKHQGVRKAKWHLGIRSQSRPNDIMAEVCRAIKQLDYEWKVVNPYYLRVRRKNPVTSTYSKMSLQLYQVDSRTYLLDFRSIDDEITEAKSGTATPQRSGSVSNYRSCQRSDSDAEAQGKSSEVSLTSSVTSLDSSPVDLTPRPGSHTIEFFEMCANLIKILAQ
T2 sequence (Q9Y478 2-270 partner): as the sequence (Q9Y478 2-270 partner) above
T2 sequence (P54619 whole entry partner): as the sequence (P54619 whole entry partner) above

The IC50 is the point on the concentration scale where inhibition reaches its midpoint. What is called Ki is the dissociation constant of the complex between target and ligand, obtained from inhibition or displacement. Turning to `CN[C@@H]1C(O)[C@H]2O[C@@](C)([C@@H]1OC)n1c3ccccc3c3c4c(c5c6ccccc6n2c5c31)C(=O)NC4` (some centres unmarked) [5-OH-S, 5′-hydroxy-staurosporine], the IC50 in assay [1] came to 583 nM. In addition, the Ki in assay [2] is 347 nM.

The record behind these values is publication PMC5830883, “A Functional Signature Ontology (FUSION) screen detects an AMPK inhibitor with selective toxicity toward human colon tumor cells” (Scientific Reports, 2018).
